Source: patent publication US20240139126A1, “NUTRITIONAL COMPOSITIONS FOR SKELETAL MUSCLE” (MITOCHOLINE LTD, priority 0001, published 2024)

Columns and labels:
[1] = system: primary myotubes; test: Mitophagy/autophagy: co-localization of mitochondria and lysosomes in primary myotubes; type: cell-based, rat; conditions: blend 50 μM DiSu+20 μM NAM; individual compounds in corresponding molar amounts
Experimental: (§1) Primary Skeletal Muscle Cell culture. Primary myotube cells were obtained from postnatal day 0-2 (P0-P2) rat pups which were sacrificed by decapitation. Briefly, the rats were immersed in 70% ethanol and the hind-limbs removed under a dissection microscope, in dissection solution containing Dulbecco's Phosphate Buffered Saline (PBS) with penicillin streptomycin (5000 units/ml) and Amphotericin B (2.5 mg/L). The tissues were then digested in 0.2% collagenase solution at 37° C. for 30-40 minutes. The reaction was stopped by adding 2-3 ml fetal bovine serum (FBS), and the tissue suspension was centrifuged at 2010 rpm (700 g) for 10 minutes. The cell pellet was resuspended in pre-warmed growth medium, Dulbecco's modified Eagle's medium (DMEM), containing 20% FBS, 100 i.u./ml penicillin and 200 i.u./ml streptomycin], and plated on 22 mm coverslips that were pre-coated with 0.2% gelatin for 1 hour at 37° C. Cells were then cultured in a humidified CO2 incubator (5% CO2 in air) at 37° C. After 2 or 3 days, the medium was changed to a low-serum medium (DMEM containing 10% FBS without antibiotics), and was subsequently renewed every 3 or 4 days. All experiments were performed in vitro between days 2 and 11 in culture when spindle-shaped myoblasts had proliferated and aligned themselves for fusion (˜70% confluency).

[2] = system: adult onset mitochondrial myopathy patients; set-up: dose or concentration left out as unconfirmed; conditions: cited from earlier work
[3] = system: primary myotube cultures; test: Mitochondrial membrane potential (TMRM fluorescence) in primary myotube cultures; type: cell-based, rat; conditions: DiSu 50 μM; NAM 20 μM
Experimental: Primary myotube cells were obtained from postnatal day 0-2 (P0-P2) rat pups which were sacrificed by decapitation. Briefly, the rats were immersed in 70% ethanol and the hind-limbs removed under a dissection microscope, in dissection solution containing Dulbecco's Phosphate Buffered Saline (PBS) with penicillin streptomycin (5000 units/ml) and Amphotericin B (2.5 mg/L). The tissues were then digested in 0.2% collagenase solution at 37° C. for 30-40 minutes. The reaction was stopped by adding 2-3 ml fetal bovine serum (FBS), and the tissue suspension was centrifuged at 2010 rpm (700 g) for 10 minutes. The cell pellet was resuspended in pre-warmed growth medium, Dulbecco's modified Eagle's medium (DMEM), containing 20% FBS, 100 i.u./ml penicillin and 200 i.u./ml streptomycin], and plated on 22 mm coverslips that were pre-coated with 0.2% gelatin for 1 hour at 37° C. […]
Tetramethyl rhodamine methyl ester (TMRM) was used to study the changes of the mitochondrial membrane potential (Δψm). […] TMRM fluorescence was excited at 543 nm (HeNe laser), and emission was measured at >560 nm. […] Therefore, the changes in potential are reflected by changes in fluorescence intensity within the mitochondria which is measured after thresholding out the background signal from the cytosol to give a mean value per pixel within the mitochondrial population of a cell. […]

[4] = system: dexamethasone-treated primary myotubes; test: Energy capacity of primary myotubes in dexamethasone-induced sarcopenia cell culture model; type: cell-based, rat; conditions: in words; for energy capacity / energy depletion compared to control cells: IAA + oligomycin; for time until cell total energy exhaustion and collapse: IAA 20 μM + oligomycin 2 μg/ml
Experimental: Primary rat myocyte cultures were prepared as described by Yao G., et al. ((Yao G., et. al. (2011) J Cell Sci v.124: 4194-4202. doi: 10.1242/jcs.088260).
All experiments were performed with 5-11 days cultured cells.
To test energetic capacity of cultures myotubes in atrophic conditions, myocyte cultures were differentiated for 5 days followed incubation in the presence of 1, 10, and 100 μM dexamethasone for 24 h.
All cultures were treated with an inhibitor of the ATP production in cellular cytoplasm via glycolysis, Iodoacetic Acid (IAA) (20 μM), and an inhibitor of the ATP production in mitochondria by oxidative phosphorylation, oligomycin (2 μg/ml). […] The cellular concentration of both cations can be indirectly measured by measuring fluorescence of Mag Fura-2 dye.

[5] = system: primary myotubes; test: NADH autofluorescence: redox index and mitochondrial pool of NADH in primary myotubes; type: cell-based, rat; conditions: blends 100 μM DiSu+40 μM NAM, 50 μM DiSu+20 μM NAM, choline 100 μM, succinate 50 μM
Experimental: as §1
NADH autofluorescence was excited at 351 and measured at 375-470 nm.

[6] = system: mice; conditions: dietary supplementation; cited from earlier work

Compound	autophagy (co-localization of mitochondria and lysosomes) [1]	blood and muscle NAD levels, muscle strength and mitochondrial biogenesis [2]	TMRM fluorescence compared to control [3]	energy capacity / energy depletion compared to control cells [4]	redox index (NADH-dependent mitochondrial respiration) [5]	time until cell total energy exhaustion and collapse [4]	endurance exercise ability [6]
Choline bitartrate [Choline**]	not	–	–	–	–	–	–
NC(=O)c1cccnc1 [NAM, nicotinamide]	not	increased in all human subjects	increase in TMRM fluorescence	Neither choline or succinate or NAM treatments had a noticeable effect	did not induce significant changes	–	–
CN(CC(=O)O)C(=N)N [creatine]	–	–	–	–	–	extended the time until cell total energy exhaustion and collapse	–
C[N+](C)(C)CCO.C[N+](C)(C)CCO.O=C([O-])CCC(=O)[O-] [DiSu, dicholine succinate]	significantly increase autophagy	–	increase in TMRM fluorescence	–	–	extended the time until cell total energy exhaustion and collapse	–
O=C([O-])CCC(=O)[O-].[Na+].[Na+] [Succinate*, Sodium succinate (salt)]	not	–	–	Neither choline or succinate or NAM treatments had a noticeable effect	did not induce significant changes	–	increased endurance exercise ability
